From patent US7858613B2, “Substituted benzo-condensed cycloheptanone derivatives and their use for producing drugs” (Gruenenthal GmbH, priority 2005, dated 2010) come the findings set out here.

For one assay, the target named is T1, human CB1 receptor (Homo sapiens, UniProt P21554).
T1 construct: purchased Perkin Elmer RBHCB1M
Nature of the assay: Study on the human CB1 receptor, [3H]CP55,940 displacement on recombinant membranes. The format is binding. To be noted: 10 μM test substance; 1 nM [3H]CP55,940; human recombinant cell membranes. Here is the method:
V. Functional Study on the Human CB1 Receptor
50 mM TRIS (from Fluka, Cat. No. 93349); 2.5 mM EDTA (from Fluka Cat. No. 03680); 5 mM MgCl2 (from Merck, Cat. No. 1.05833); 0.5 mg/ml BSA (from Sigma Cat. No. A-2153)
The membranes (RBHCB1M, from Perkin Elmer (human recombinant cell membranes)) were supplied in aliquots of 1 ml each in dry ice and stored at −80° C. The protein concentration of the batches was around 6 mg/ml. For the test, in each case 1 ml was thawed rapidly and diluted with 7 ml of incubation buffer (1:8). 20 μl of this dilution were used in the test. This corresponded to a protein content of approx. 15 μg in the batch.
MTP from Costar® of the “U type” (assay MTP; Cat. No. 3794) was used. The pipetting sequence is reproduced in Table 1 below.
After the pipetting operation had ended, a lid was placed on the MTP and the incubation was effected at 25° C. for 90 min.
Subsequently, the samples were removed by suction with the aid of a Brandel cell harvester (model MPXRI-96T) through a GF/B Unifilter MTP (from Packard, Cat. No. 6005177) presoftened with 0.05% PEI. The samples were washed twice with 200 ml of ice-cooled incubation buffer per 96-well MTP. Thereafter, the plate was dried in a drying cabinet +60° C. for 1 h. […] After a wait time of 1 h, the plate was analyzed on a “Trilux” from Wallac.

The next assay deals with T2, human CB2 receptor (Homo sapiens, UniProt P34972).
T2 construct: expressed in transfected cells; host or cells: HEK-293EBNA cells (membranes)
T2 sequence (P34972 whole entry): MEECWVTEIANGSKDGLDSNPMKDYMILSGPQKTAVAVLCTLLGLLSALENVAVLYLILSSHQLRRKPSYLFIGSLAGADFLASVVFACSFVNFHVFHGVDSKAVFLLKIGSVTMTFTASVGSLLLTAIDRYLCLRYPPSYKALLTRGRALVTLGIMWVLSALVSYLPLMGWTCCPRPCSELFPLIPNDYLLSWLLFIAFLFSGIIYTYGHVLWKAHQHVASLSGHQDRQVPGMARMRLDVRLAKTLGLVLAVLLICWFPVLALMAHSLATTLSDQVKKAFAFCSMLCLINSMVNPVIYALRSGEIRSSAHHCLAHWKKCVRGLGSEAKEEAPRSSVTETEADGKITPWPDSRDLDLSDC
Kind of assay: Affinity for cannabinoid receptor CB2, [3H]-CP 55,940 displacement on HEK-293EBNA membranes. To be noted: 10 μM test substance; 0.33 nM [3H]-CP 55,940; percent inhibition of specific binding. The source says:
VI. Determination of the Affinity for the Cannabinoid Receptor CB2 (CB2 Receptor):
To determine the affinity of the inventive compounds for the cannabinoid receptor, membranes from human recombinant HEK-293EBNA cells were used, which had been transfected stably with the human CB2 receptor. The radioligand used was tritium-labeled 5-(1,1-dimethylheptyl)-2-(5-hydroxypropyl)cyclohexyl)-1-alpha,2-beta,5-alpha)phenol ([3]H—CP 55,940 with 103.4 Ci/mmol, 1 mCi/ml). The determination was effected in a test buffer composed of 50 mM Tris-HCl, 2.5 mM EDTA, 5 mM MgCl2 and 1.0 mg/ml of fatty acid-free BSA. The test substances were each dissolved in DMSO.
The affinity of the inventive compounds for the CB2 receptor is determined by their ability to displace [3]H—CP 55,940 from CB2 receptors in membranes from HEK-293EBNA cells. To this end, in each case 8 μg of the membranes (20 μl of a solution from membranes in a concentration of 400 μg/ml) are incubated in wells on a microtiter plate with a 0.33 nM solution of ^[3]H-CP […] (120 Ci/mmol) in a total volume of test buffer of 200 μl at 30° C. for 90 minutes.
Subsequently, either the test substances or WIN 55212-2 to determine the unspecific binding, in each case dissolved in DMSO, are added to the wells so as to result in each case in a concentration of the corresponding substances of 10 μM.
Incubation at 30° C. is continued for a further 40 minutes. The binding reaction was ended by rapid filtration through GF/C filter paper which had been treated with 0.05% PEI using a Brandel cell harvester with 96 wells. The filters are washed nine times with 0.5 ml of ice-cooled washing buffer ([…] Tris-HCl, 5 mM MgCl2, 2.5 mM EDTA, 2% BSA, pH 7.4), air-dried and placed in scintillation fluid, and the radioactivity is determined with the aid of a scintillation counter.
The percentage displacement of the radioactive ligand ^[3]H-CP 55,940 from its binding to the CB2 receptor is reported as percent inhibition of the specific binding.

Another assay has as its target T3, vanilloid receptor (VR1) (Homo sapiens, UniProt Q8NER1).
T3 construct: expressed in transfected cells; host or cells: CHO K1 cells (ECACC)
Nature of the assay: Functional study on vanilloid receptor (VR1), FLIPR Ca2+ assay in VR1-transfected CHO K1 cells. The format is cell-based. To be noted: test substance 10 μM; CHO K1 cells transfected with VR1; suppression of Ca2+ current after 100 nM capsaicin; read-out: VR1 (human) (% inhibition compared to 10 μM CP). An excerpt:
II. Functional Studies on the Vanilloid Receptor (VR1)
The agonistic or antagonistic action of the substances to be tested on vanilloid receptor (VR1) can also be determined with the assay which follows. In this assay, the Ca^2+ current through the channel is quantified with the aid of a Ca^2+-sensitive dye (Fluo-4 type, Molecular Probes, Europe BV, Leiden, the Netherlands) in a fluorescent imaging plate reader (FLIPR, Molecular Devices, Sunnyvale, USA).
Chinese hamster ovary cells (CHO K1 cells, European Collection of Cell Cultures (ECACC) Great Britain) are transfected stably with the VR1 gene. For functional studies, these cells are plated out onto poly-D-lysine-coated black 96-well plates with a clear bottom (BD Biosciences, Heidelberg, Germany) in a density of 25 000 cells/well. The cells are incubated overnight at 37° C. and 5% CO2 in a culture medium (Ham's Nutrient Mixture F12, 10% by volume of FCS (fetal calf serum), 18 μg/ml of L-proline). The next day, the cells are incubated with Fluo-4 (Fluo-4 2 μM, Pluronic F127 0.01% by volume, Molecular Probes in HBSS (Hank's buffered saline solution), Gibco Invitrogen GmbH, Karlsruhe, Germany) at 37° C. for 30 minutes. Subsequently, the plates are washed 3 times with HBSS buffer and, after a further incubation of 15 minutes at room temperature, used for Ca^2+ measurement in FLIPR. The Ca^2+-dependent fluorescence is measured before and after addition of the substances to be studied (wavelength λex=488 nm, λem=540 nm). The quantification is effected by measuring the highest fluorescence intensity (FC, fluorescence counts) over the time.
The FLIPR protocol consists of 2 substance additions. First, the substances to be tested (10 μM) are pipetted onto the cells and the Ca^2+ current is compared with the control (capsaicin 10 μM) (% activation based on the Ca^2+ signal after addition of 10 μM capsaicin). After incubation for 5 minutes, 100 nM capsaicin is applied and the current of Ca^2+ is likewise determined.
Desensitizing agonists and antagonists led to a suppression of the Ca^2+ current. % inhibition is calculated compared to the maximum achievable inhibition with 10 μM capsazepine.

Assay [1] has as its target T4, vanilloid receptor 1 (VR1/TRPV1) (Rattus norvegicus, UniProt O35433).
T4 construct: The spinal column is removed from beheaded rats; from tissue; host or cells: primary cells from rat dorsal root ganglia
Kind of assay: Functional study on vanilloid receptor 1 (VR1/TRPV1), FLIPR Ca2+ assay in rat dorsal root ganglia cells. The format is cell-based. The note with it: test compound 10 μM; rat DRG cells; suppression of Ca2+ current after 100 nM capsaicin; read-out: VR1 (rat) (% inhibition compared to 10 μM CP). Here is the method:
Preference may likewise be given to inventive compounds which, in the FLIPR assay, in a concentration of 10 μM, have an inhibition of the Ca^2+ ion current in dorsal root ganglia of rats of at least 10%, preferably of at least 30%, more preferably of at least 50%, even more preferably of at least 70%, even more preferably of at least 90%, compared to the maximum achievable inhibition of the Ca^2+ ion current with […] in a concentration of 10 μM.
In the FLIPR assay, the Ca^2+ current is quantified with the aid of a Ca^2+-sensitive dye (Fluo-4 type, Molecular Probes Europe BV, Leiden, the Netherlands) in the fluorescent imaging plate reader (FLIPR, Molecular Devices, Sunnyvale, USA), as described below.
I. Functional Study on the Vanilloid Receptor 1 (VR1/TRPV1 Receptor)
The agonistic or antagonistic action of the substances to be studied on the vanilloid receptor 1 (VR1/TRPV1) of the rat species can be determined with the following assay. In this assay, the Ca^2+ current through the receptor channel is quantified with the aid of a Ca^2+-sensitive dye (Fluo-4 type, Molecular Probes Europe BV, Leiden the Netherlands) in a fluorescent imaging plate reader (FLIPR, Molecular Devices, Sunnyvale, USA).
Cell culture plate: poly-D-lysine-coated, black 96-hole plates with a clear bottom (96 well black/clear plate, BD Biosciences, Heidelberg, Germany) are additionally coated with laminin (Gibco Invitrogen GmbH, Karlsruhe, Germany) by diluting laminin to a concentration of 100 μg/ml with PBS (Ca—Mg-free PBS, Gibco Invitrogen GmbH, Karlsruhe, Germany). Aliquots having a concentration of 100 μg/ml of laminin are withdrawn and stored at −20° C. The aliquots are diluted with PBS in a ratio of 1:10 to 10 μg/ml of laminin and in each case 50 μl of the solution are pipetted into a well of the cell culture plate. The cell culture plates are incubated at 37° C. for at least two hours, the supernatant solution is removed by suction and the wells are each washed twice with PBS. The coated cell culture plates are stored with supernatant PBS which is not removed until directly before the application of the cells.
The spinal column is removed from beheaded rats and placed directly into cold HBSS buffer (Hank's buffered saline solution, Gibco Invitrogen GmbH, Karlsruhe, Germany), i.e. placed in an ice bath, which has been admixed with 1% by volume of an AA solution (antibiotic/antimycotic solution, PAA, Pasching, Austria). The spinal column is severed longitudinally and removed from the spinal canal together with fasciae. Subsequently, the dorsal root ganglia (DRGs) are removed and in turn stored in cold HBSS buffer admixed with 1% by volume of an AA solution. The DRGs freed completely of blood residues and spinal nerves are in each case transferred to 500 μl of cold type 2 collagenase (PAA, Pasching, Austria) and incubated at 37° C. for 35 minutes. After addition of 2.5% by volume of trypsin (PAA, Pasching, Austria), incubation is continued at 37° C. for a further 10 minutes. After complete incubation, the enzyme solution is cautiously pipetted off and the remaining DRGs are each admixed with 500 μl of complete medium.
The DRGs are each suspended repeatedly, drawn through cannulas No. 1, No. 12 and No. 16 by means of a syringe and transferred to 50 ml Falcon tubes which are made up to 15 ml with complete medium. The contents of each Falcon tube are in each case filtered through a 70 μm Falcon filter insert and centrifuged at 1200 revolutions and room temperature for 10 minutes. The resulting pellet is in each case taken up in 250 μl of complete medium and the cell count is determined.
The number of cells in the suspension is adjusted to 3 times 10^5 per ml and in each case 150 μl of this suspension are added to one well of the cell culture plates coated as described above. In the incubator, the plates are left to stand at 37° C., 5% by volume of CO2 and 95% relative air humidity for two to three days. […]

T1 sequence (P21554 whole entry): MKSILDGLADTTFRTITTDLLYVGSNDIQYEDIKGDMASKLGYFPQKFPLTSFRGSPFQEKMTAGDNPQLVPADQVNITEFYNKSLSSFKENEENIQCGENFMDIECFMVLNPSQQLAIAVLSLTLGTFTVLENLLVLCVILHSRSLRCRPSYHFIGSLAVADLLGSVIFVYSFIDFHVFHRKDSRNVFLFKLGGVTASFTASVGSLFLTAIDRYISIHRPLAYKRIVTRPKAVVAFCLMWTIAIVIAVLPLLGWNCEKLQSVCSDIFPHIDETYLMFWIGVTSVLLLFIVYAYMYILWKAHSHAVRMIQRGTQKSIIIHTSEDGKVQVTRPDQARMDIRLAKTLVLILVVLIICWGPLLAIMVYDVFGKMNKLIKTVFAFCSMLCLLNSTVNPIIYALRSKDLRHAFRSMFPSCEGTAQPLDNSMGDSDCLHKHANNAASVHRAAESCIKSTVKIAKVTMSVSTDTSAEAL
T4 sequence (O35433 whole entry): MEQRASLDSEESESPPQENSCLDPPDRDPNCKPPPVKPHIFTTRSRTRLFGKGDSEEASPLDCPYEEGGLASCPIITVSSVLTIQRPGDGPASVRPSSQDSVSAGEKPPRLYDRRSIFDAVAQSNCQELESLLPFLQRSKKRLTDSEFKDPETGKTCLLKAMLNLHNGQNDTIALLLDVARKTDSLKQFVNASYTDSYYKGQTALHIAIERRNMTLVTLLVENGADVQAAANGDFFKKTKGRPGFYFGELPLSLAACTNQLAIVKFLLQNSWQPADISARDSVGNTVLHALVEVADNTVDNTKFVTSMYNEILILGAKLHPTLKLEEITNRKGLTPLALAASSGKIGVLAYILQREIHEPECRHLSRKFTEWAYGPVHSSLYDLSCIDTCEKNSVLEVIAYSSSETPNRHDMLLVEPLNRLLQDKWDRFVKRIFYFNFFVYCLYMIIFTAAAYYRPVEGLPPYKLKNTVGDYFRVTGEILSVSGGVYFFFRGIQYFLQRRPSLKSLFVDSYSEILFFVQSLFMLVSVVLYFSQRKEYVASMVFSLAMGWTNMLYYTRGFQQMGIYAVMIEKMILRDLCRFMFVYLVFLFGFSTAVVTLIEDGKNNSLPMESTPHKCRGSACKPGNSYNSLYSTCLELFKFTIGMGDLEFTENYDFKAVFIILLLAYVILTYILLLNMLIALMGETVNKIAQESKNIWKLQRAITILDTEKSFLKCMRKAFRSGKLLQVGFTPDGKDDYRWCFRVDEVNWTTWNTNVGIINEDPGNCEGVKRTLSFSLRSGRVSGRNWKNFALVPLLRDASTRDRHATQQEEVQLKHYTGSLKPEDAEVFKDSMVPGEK
T3 sequence (Q8NER1 whole entry): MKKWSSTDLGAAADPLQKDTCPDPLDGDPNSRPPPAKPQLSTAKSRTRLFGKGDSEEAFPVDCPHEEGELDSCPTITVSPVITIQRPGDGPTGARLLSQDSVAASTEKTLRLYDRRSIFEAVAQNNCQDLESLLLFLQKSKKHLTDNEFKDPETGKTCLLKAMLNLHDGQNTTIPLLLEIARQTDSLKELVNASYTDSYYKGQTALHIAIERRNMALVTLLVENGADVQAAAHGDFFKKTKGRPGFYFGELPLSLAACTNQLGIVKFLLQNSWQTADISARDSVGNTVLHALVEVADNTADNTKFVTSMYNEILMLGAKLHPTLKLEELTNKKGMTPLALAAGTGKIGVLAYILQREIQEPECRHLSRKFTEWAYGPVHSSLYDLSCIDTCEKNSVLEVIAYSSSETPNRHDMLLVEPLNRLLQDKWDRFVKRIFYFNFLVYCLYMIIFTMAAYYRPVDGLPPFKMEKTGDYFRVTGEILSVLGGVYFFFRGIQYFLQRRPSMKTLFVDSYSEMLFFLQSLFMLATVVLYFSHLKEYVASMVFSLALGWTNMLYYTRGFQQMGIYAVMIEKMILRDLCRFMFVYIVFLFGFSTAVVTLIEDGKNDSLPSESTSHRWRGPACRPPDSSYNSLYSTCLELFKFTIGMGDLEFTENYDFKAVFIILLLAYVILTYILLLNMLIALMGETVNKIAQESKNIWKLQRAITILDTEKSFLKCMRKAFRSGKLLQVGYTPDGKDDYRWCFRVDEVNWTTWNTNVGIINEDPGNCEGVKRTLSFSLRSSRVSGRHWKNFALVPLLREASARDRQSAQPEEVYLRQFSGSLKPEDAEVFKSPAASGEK

Broadly, the inhibition is the relative decrease from the control value, in per cent. On to `O=C(Nc1ccccc1)OCC1(COC(=O)Nc2ccccc2)CCSc2ccccc2C1=O` [Example Compound 2, Phenylcarbamic acid 4-(phenylcarbamoyloxymethyl)-5-oxo-2,3,4,5-tetrahydro-benzo[b]thiepin-4-ylmethyl ester], for which the inhibition at 10 µM at human CB1 receptor worked out at 42%; at human CB2 receptor it was 74.6%.
With `O=C(NC1CCCCC1)OCC1(COC(=O)NC2CCCCC2)CCCc2ccccc2C1=O` [Example Compound 8, Cyclohexylcarbamic acid 6-(cyclohexylcarbamoyloxymethyl)-5-oxo-6,7,8,9-tetrahydro-5H-benzocyclohepten-6-ylmethyl ester], the inhibition at 10 µM at human CB1 receptor was determined as 47%; on human CB2 receptor, 76.2%.
In the case of `O=C(NC(=O)c1ccccc1)OCC1(COC(=O)NC(=O)c2ccccc2)CCOc2ccccc2C1=O` [Example Compound 19, Benzoylcarbamic acid 4-benzoylcarbamoyloxymethyl-5-oxo-2,3,4,5-tetrahydro-benzo[b]oxepin-4-ylmethyl ester], the inhibition at 10 µM on vanilloid receptor (VR1) was determined as 13.3%; in assay [1], 32.2%; on human CB2 receptor it was 40.3%.
